In article PMC12177060, “Blocking XIAP:CASP7-p19 selectively induces apoptosis of CASP3/DR malignancies by a novel reversible small molecule” (Cell Death & Disease, 2025):

Biological target: T1, CASP7 (Homo sapiens, UniProt P55210)
T1 construct: human CASP7 cDNA in pET28a, C-terminal 6-His tag, E. coli BL21(DE3), Ni-NTA purified; active processed form, MW 70 kDa hetero-tetramer (p19/p12)
T1 sequence (P55210 24-198): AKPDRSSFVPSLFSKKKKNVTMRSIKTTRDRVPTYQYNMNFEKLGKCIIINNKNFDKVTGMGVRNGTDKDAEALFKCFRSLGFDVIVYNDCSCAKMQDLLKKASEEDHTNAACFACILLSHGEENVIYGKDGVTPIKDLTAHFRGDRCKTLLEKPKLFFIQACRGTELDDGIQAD
T1 sequence (P55210 207-303): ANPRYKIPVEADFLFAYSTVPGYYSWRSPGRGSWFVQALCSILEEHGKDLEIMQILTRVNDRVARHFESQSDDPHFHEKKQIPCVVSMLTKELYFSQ
Assay: SPR (BIAcore), His-tagged CASP7 immobilised on NiNTA chip
Format: binding
Settings: allosteric site near Cys246/Asp93 (proposed), reversible; 2.5, 5 or 10 μM injected

Kd: 3.1 µM
SMILES: COc1cc2c(-c3ccc(O)cc3)nc3c(c(C)nn3-c3ccccc3)c2cc1OC [compound 643943, 643943]
